In US20040106802A1, “Novel compounds and therapeutic uses thereof” (TORRENT PHARMACEUTICALS LTD., priority 2002, published 2004):
Where a name gives a salt, the structure may show the parent alone.

molecular target: T1, Porcine DPP-IV (Sus scrofa, UniProt P22411); test: Assay of DPP-IV enzyme inhibitory activity (spectrophotometric, Gly-Pro-pNA cleavage); type: biochemical; settings: Porcine DPP-IV, Gly-Pro-pNA substrate, 30° C.; mean ± SD of three experiments except compound Nos. 133 & 139; read-out: IC50 (μM) Mean ± SD, inhibitory activity on DPP-IV enzyme activity
T1 construct: purchased Sigma-Aldrich Germany
T1 sequence (P22411 whole entry): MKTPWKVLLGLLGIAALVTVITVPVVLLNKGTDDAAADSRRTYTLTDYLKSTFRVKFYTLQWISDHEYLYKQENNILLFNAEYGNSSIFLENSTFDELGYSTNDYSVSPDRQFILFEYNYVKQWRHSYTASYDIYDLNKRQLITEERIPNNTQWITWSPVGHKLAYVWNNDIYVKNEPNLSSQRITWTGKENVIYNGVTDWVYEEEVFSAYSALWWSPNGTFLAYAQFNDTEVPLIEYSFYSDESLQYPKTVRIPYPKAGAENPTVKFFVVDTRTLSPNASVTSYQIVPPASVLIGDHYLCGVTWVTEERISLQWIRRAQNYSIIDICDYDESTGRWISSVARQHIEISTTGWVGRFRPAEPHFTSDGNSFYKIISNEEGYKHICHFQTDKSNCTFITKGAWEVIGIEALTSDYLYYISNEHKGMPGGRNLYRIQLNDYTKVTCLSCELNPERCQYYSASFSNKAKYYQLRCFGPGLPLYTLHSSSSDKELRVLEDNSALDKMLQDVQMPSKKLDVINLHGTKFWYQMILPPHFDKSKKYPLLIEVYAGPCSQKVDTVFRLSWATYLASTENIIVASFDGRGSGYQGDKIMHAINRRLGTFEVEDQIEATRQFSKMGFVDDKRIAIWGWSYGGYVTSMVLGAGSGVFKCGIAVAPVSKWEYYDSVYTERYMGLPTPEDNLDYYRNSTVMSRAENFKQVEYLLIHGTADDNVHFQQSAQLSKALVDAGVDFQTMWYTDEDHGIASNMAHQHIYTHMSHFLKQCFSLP
Procedure: Assay of DPP-IV Enzyme Inhibitory Activity.
The assay method is a modified method (as described by Welch et al, 1998) based on spectrophotometric determination of the product formed by penultimate proline cleaving activity of the enzyme.
Assay protocol involves incubation of the enzyme dipeptidyl peptidase IV with the test substance at 30° C. for 30 min followed by addition of this reaction mixture to the substrate Gly-Pro-pNA that was equilibrated at 30° C. for 2 min. The enzyme cleaves the substrate at penultimate proline and releases p-nitroanilide, the optical density of which is measured at 385 nm. The formation of p-nitroanilide will be reduced in the presence of inhibitor. […] The activity of molecule is expressed in terms of % inhibition. At least three different concentrations were tried out for each of the test substances. The percentage inhibitions for each of the concentrations were plotted and an IC50 of the test compound was worked out. The enzyme inhibitory activity of different test compounds were compared based on the IC50 values.
The percentage inhibition % I, is calculated using the formula:
% I=[(1−vi/v0)]*100 where vi and v0 are the Vmax values with and without the test substance, respectively.
Substrate solution: 0.5 mM in 45 mM phosphate buffer
Substrate used: Gly-Pro-p-nitroanilide (Source: Sigma-Aldrich Co. Germany)
3.288 mg substrate in 1 ml 45 mM phosphate buffer was prepared as stock solution. 0.25 ml of this stock solution was diluted to 5 ml to get 0.5 mM substrate solution (90 μl to be added in each well). The stock solution of the substrate was used within three days of preparation.
Enzyme solution: Porcine DPP-IV (Sigma-Aldrich Germany) was used throughout the study. 0.4 mU in 80 μl of Tris. HCl buffer was prepared. Fresh solutions were prepared everyday for the assays.
Various concentrations of inhibitor were used: 0.391 μM, 0.781 μM, and 3.125 μM. Solutions of inhibitor were prepared and used on the same day.
280 μl of enzyme solution (0.4-mU/80 μl in Tris HCl buffer) was added to the eppendorf containing 70 μl solution of inhibitor or vehicle and mixed. This reaction mixture was incubated for 30 min at 30° C. The 96 well plate containing substrate solution was thermally equilibrated in the spectrophotometer for 2 min at 30° C. Later 100 μl of the enzyme-inhibitor pre-incubation solution was added to respective wells in a 96 well plate. Each concentration of the inhibitor was tested in triplicates.
The rate of change in UV absorbance (in presence of various concentrations of the inhibitor) was measured at 385 nm, with respect to wells containing only 0.5 mM substrate in 45 mM phosphate buffer as blank at every 10 min for 2 hours after adding enzyme-inhibitor mixture to wells containing substrate solution.

| Structure (SMILES) | IC50 |
| --- | --- |
| N#CC1CSCN1C(=O)CN(N)C1CCC(NCC(=O)Nc2ccc(Cl)cn2)CC1 (centres unmarked) [Compound No. 111, 3-[1-oxo-2-[1-(4-(2-oxo-2-(5-chloropyridin-2-yl)aminoethyl)aminocyclohex-1-yl)]hydrazino]ethyl-4-cyanothiazolidine tris-trifluoroacetate] | 0.563 ± 0.077 µM |
| CC1CCC(N(CC(=O)N2CSCC2C#N)NC(C)C)CC1 (centres unmarked) [Compound No. 44, 3-[1-Oxo-2-(1-(4-methylcyclohexyl)-2-isopropyl)hydrazino]ethyl-4-cyanothiazolidine trifluoroacetate] | 2.86 ± 0.18 µM |
| CCC(C)N(N)CC(=O)N1CCCC1C#N (centres unmarked) [Compound No. 22, 1-[1-Oxo-2-((1-methylpropyl)hydrazino)]ethyl-2-cyano pyrrolidine trifluoroacetate] | 76.5 ± 7.51 µM |
| CC(C)(C)C1CCC(N(N)CC(=O)N2CSCC2C#N)CC1 (centres unmarked) [Compound No. 49, 3-[1-Oxo-2-(1-(4-tertbutylcyclohexyl)hydrazino)]ethyl-4-cyanothiazolidine trifluoroacetate] | 1.04 ± 0.25 µM |
| Cc1cnc(C(=O)NC2CCC(N(N)CC(=O)N3CSCC3C#N)CC2)cn1 (centres unmarked) [compound 139, 3-[1-oxo-2-(1-(1-(5-methylpyrazine-2-ylcarbonyl)amino-4-cyclohexyl)) hydrazino]ethyl-4-cyanothiazolidine, tris-trifluoroacetate] | 0.485 ± 0.01 µM |
| N#CC1CSCN1C(=O)CN(N)C1CCN(Cc2cccnc2)CC1 (centres unmarked) [Compound No. 57, 3-[1-Oxo-2-(1-(1-(3-pyridinemethyl)-4-piperidinyl) hydrazino)]ethyl-4-cyanothiazolidine tris trifluoroacetate] | 4.77 ± 0.41 µM |
| N#CC1CSCN1C(=O)CN(N)C1CCN(CC(=O)Nc2nccs2)CC1 (centres unmarked) [compound 134, 3-[1-oxo-2-(1-(1-(2-oxo-2-(thiazole-2-yl)-aminoethyl)piperidin-4-yl))hydrazino]ethyl-4-cyanothiazolidine, tris-trifluoroacetate] | 0.205 ± 0.011 µM |
| N#CC1CSCN1C(=O)CN(N)C(=O)N1CCOCC1 (centres unmarked) [Compound No. 43, 3-[1-Oxo-2-(1-(4-morpholinocarbonyl) hydrazino)ethyl]-4-cyanothiazolidine trifluoroacetate] | 38.2 ± 2.56 µM |
| N#CC1CSCN1C(=O)CN(N)C1CCN(c2ccc(C(F)(F)F)cn2)CC1 (centres unmarked) [Compound No. 77, 3-[1-Oxo-2-(1-(1-(5-trifluoromethyl-2-pyridinyl)-piperidin-4-yl) hydrazino)]ethyl-4-cyano thiazolidine bis trifluoroacetate] | 0.67 ± 0.06 µM |
| N#CC1CSCN1C(=O)CN(N)C1CCN(C(=O)CN2CCOCC2)CC1 (centres unmarked) [Compound No. 110, 3-[1-oxo-2-[1-(1-(1-oxo-2-(morpholin-4-yl)ethyl)piperidin-4-yl)]hydrazino]ethyl-4-cyanothiazolidine bis-trifluoroacetate] | 0.83 ± 0.05 µM |
| N#Cc1cc(CN2CCC(N(N)CC(=O)N3CSCC3C#N)CC2)ccc1-c1ccccc1 (centres unmarked) [Compound No. 109, 3-[1-oxo-2-[1-(1-(2-cyanobiphenyl-4-yl)methyl)piperidine-4-yl]hydrazino]ethyl-4-cyanothiazolidine bis-trifluoroacetate] | 1.02 ± 0.14 µM |
| CC1CCC(NN(C)CC(=O)N2CSCC2C#N)CC1 (centres unmarked) [Compound No. 68, 3-[1-Oxo-2-(1-methyl-2-(4-methylcyclohexyl) hydrazino)]ethyl-4-cyanothiazolidine] | 45.3 ± 3.03 µM |
| CCN(N)CC(=O)N1CCCC1C#N (centres unmarked) [Compound No. 14, 1-[1-Oxo-2-((1-ethyl)hydrazino)]ethyl-2-cyano pyrrolidine trifluoroacetate] | 93.7 ± 5.54 µM |
| N#CC1CSCN1C(=O)CN(N)Cc1ccc([N+](=O)[O-])cc1 (centres unmarked) [Compound No. 17, 3-[1-Oxo-2-((1-(4-nitrophenylmethyl))hydrazino)]ethyl-4-cyano thiazolidine trifluoroacetate] | 35.8 ± 1.03 µM |
| COCCNC(=O)CN1CCC(N(N)CC(=O)N2CSCC2C#N)CC1 (centres unmarked) [compound 135, 3-[1-oxo-2-(1-(1-(2-oxo-2-(2-methoxyethyl)aminoethyl)piperidin-4-yl))hydrazino]ethyl-4-cyanothiazolidine, bis-trifluoroacetate] | 1.03 ± 0.035 µM |
| CC(C)N(N)CC(=O)N1CCCC1C#N (centres unmarked) [Compound No. 12, 1-[1-Oxo-2-((1-(1-methyl)ethyl)hydrazino)]ethyl-2-cyano pyrrolidine trifluoroacetate] | 61.3 ± 4.55 µM |

| Structure (SMILES) | IC50 |
| --- | --- |
| N#CC1CSCN1C(=O)CN(N)C1CCN(CC(=O)Nc2ccc(F)c(Cl)c2)CC1 (centres unmarked) [compound 128, 3-[1-oxo-2-(1-(1-(2-oxo-2-(3-chloro-4-fluoro-phenyl)aminoethyl)piperidine-4-yl))hydrazino]ethyl-4-cyanothiazolidine, bis-trifluoroacetate] | 0.342 ± 0.035 µM |
| N#CC1CCCN1C(=O)CN(N)C1CCCCC1 (centres unmarked) [Compound No. 20, 1-[1-Oxo-2-((1-Cyclohexyl)-hydrazino)]ethyl-2-cyano pyrrolidine trifluoroacetate] | 33.7 ± 0.99 µM |
| N#CC1CSCN1C(=O)CN(N)C1CCN(S(=O)(=O)c2ccc(Cl)cc2)CC1 (centres unmarked) [Compound No. 62, 3-[1-Oxo-2-[1-(1-(4-chlorophenylsulphonyl)-piperidin-4-yl)]hydrazino]ethyl-4-cyanothiazolidine trifluoroacetate] | 1.54 ± 0.34 µM |
| N#CC1CSCN1C(=O)CN(N)C12CCC(CC1)C2 (centres unmarked) [Compound No. 63, 3-[1-Oxo-2-(1-(1-norcamphoranyl) hydrazino)]ethyl-4-cyanothiazolidine trifluoroacetate] | 0.73 ± 0.02 µM |
| CC(C)N1CCC(N(N)CC(=O)N2CSCC2C#N)CC1 (centres unmarked) [Compound No. 51, 3-[1-Oxo-2-(1-isopropyl-4-piperidinyl) hydrazino)]ethyl-4-cyano thiazolidine trifluoroacetate] | 3.5 ± 0.06 µM |
| N#CC1CSCN1C(=O)CN(N)C1CCN(CC(=O)Nc2nc3ccccc3s2)CC1 (centres unmarked) [compound 138] | 0.104 ± 0.009 µM |
| N#CC1CCCN1C(=O)CNNC1CCCCC1 (centres unmarked) [Compound No. 34, 1-[1-Oxo-2-(2-cyclohexyl) hydrazino] ethyl-2-cyanopyrrolidine trifluoroacetate] | 30.3 ± 5.5 µM |
| CC(C)CN(N)CC(=O)N1CCCC1C#N (centres unmarked) [Compound No. 10, 1-[1-Oxo-2-(1-(2-methylpropyl)hydrazino)]ethyl-2-cyano pyrrolidine trifluoroacetate] | 69.8 ± 17.5 µM |
| CS(=O)(=O)NC1CCC(N(N)CC(=O)N2CSCC2C#N)CC1 (centres unmarked) [Compound No. 78, 3-[1-Oxo-2-(1-(1-methanesulphonylamino-4-cyclohexyl) hydrazino)]ethyl-4-cyanothiazolidine trifluoroacetate] | 0.25 ± 0.02 µM |
| N#CC1CSCN1C(=O)CN1CCCCN1 (centres unmarked) [Compound No. 83] | 82 ± 18 µM |
| CC(C)(C)OC(=O)NNCC(=O)N1COCC1C#N (centres unmarked) [compound 147, 3-[-oxo-2-(2-ter-butyloxycarbonyl) hydrazino]ethyl-4-cyanooxazolidine] | 150 ± 43 µM |
| CC(C)N(N)CC(=O)N1CCCC1C#N (centres unmarked) [Compound No. 41, 1-[1-Oxo-2-isopropyl-2-hydrazino]ethyl-2-cyano pyrrolidine trifluoroacetate] | 48.3 ± 1.75 µM |
| N#CC1CSCN1C(=O)CN(N)C1CCC(NC(=O)c2ccc(F)cc2)CC1.O=C(O)C(F)(F)F (centres unmarked) [Compound No. 100, 3-[1-oxo-2-[1-(4-fluorobenzoyl)aminocyclohexan-4-yl)]hydrazino]ethyl-4-cyanothiazolidine trifluoroacetate] | 0.93 ± 0.015 µM |
| CCOC(=O)Cc1csc(NC(=O)CN2CCC(N(N)CC(=O)N3CSCC3C#N)CC2)n1 (centres unmarked) [compound 129, 3-[1-oxo-2-(1-(1-(2-oxo-2-(4-ethoxycarbonylmethylthiazole-2-yl)aminoethyl)piperidine-4-yl)) hydrazino]ethyl-4-cyanothiazolidine, tris-trifluoroacetate] | 0.362 ± 0.06 µM |
| CN(CC(=O)N1CSCC1C#N)NC1CCN(Cc2cccnc2)CC1 (centres unmarked) [Compound No. 59, 3-[1-Oxo-2-[1-methyl-2-(1-(3-pyridinylmethyl)-piperidin-4-yl)]hydrazino]ethyl-4-cyanothiazolidine tris trifluoroacetate] | 9.27 ± 0.42 µM |
| CCCC1CCC(N(N)CC(=O)N2CSCC2C#N)CC1 (centres unmarked) [Compound No. 64, 3-[1-Oxo-2-(1-(4-npropylcyclohexyl)hydrazino)]ethyl-4-cyanothiazolidine trifluoroacetate] | 0.34 ± 0.07 µM |
